According to patent publication US20060074091A1, “Nootropic effect enhancer” (priority 2000, published 2006):

Tested on: Fischer male rats with Meynert's basal nuclei damage
Experiment: Passive avoidance learning test (mneme test) in rats with ibotenic acid injury of Meynert's basal nuclei
Type: in vivo, rat
Details: 0.1 mg/kg
Procedure: A solution prepared by dissolving ibotenic acid in physiological saline to have a concentration of 8 μg/μl was injected into the Meynert's basal nuclei of Fischer male rats (n=12 to 13, 11-weeks old when used in the experiment). One μl of the solution was injected thereinto over a period of 6 minutes, and then the rats were left as they were for 5 minutes to thereby make them have bilateral injury. Three weeks after the treatment, they were used in the experiment. Before the experiment, they were handled for 3 days. In the mneme test, the rats were first put into the light room of a passive avoidance learning test device, and the latent time taken before they entered the dark room was measured (acclimation trial). […] Then, the rats were made to receive electric shock (0.4 mA, 4 seconds) via the grid of the floor of the dark room (acquirement trial) 24 hours after the acquirement trial, the rats were again transferred into the light room, and the reaction latent time taken before the rats entered the dark room was measured up to at most 300 seconds (retention trial). […] The dose of each of the two substances was determined on the basis of the test results previously made for the efficacy of the single administration of each substance to the same models. […]

| SMILES | effect on reaction latent time in single administration (in words) |
| --- | --- |
| CC(=O)N1CCN(NC(=O)c2ccc(F)cc2)CC1 [FK960, N-(4-acetyl-1-piperazinyl)-p-fluorobenzamide Monohydrate] | ineffective |
| COc1cc2c(cc1OC)C(=O)C(CC1CCN(Cc3ccccc3)CC1)C2.Cl (centres unmarked) [E2020, Donepedil Hydrochloride] | ineffective |
